In ChEMBL document CHEMBL2311252, “Cytosporone S with antimicrobial activity, isolated from the fungus Trichoderma sp. FKI-6626” (2013):
In brackets after ≈: the same amount, converted by molar mass.

Key:
Mucor racemosus = experiment: Antifungal activity against Mucor racemosus KF223 NBRC4581 by agar dilution method; assay type: functional
Aspergillus niger = experiment: Antifungal activity against Aspergillus niger KF104 ATCC 9643 by agar dilution method; assay type: functional
Aspergillus oryzae = experiment: Antifungal activity against Aspergillus oryzae KF439 by agar dilution method; assay type: functional
Saccharomyces cerevisiae = experiment: Antifungal activity against Saccharomyces cerevisiae KF26 by agar dilution method; assay type: functional
Candida albicans = experiment: Antifungal activity against Candida albicans KF1 by agar dilution method; assay type: functional
Pseudomonas aeruginosa [1] = experiment: Antibacterial activity against Pseudomonas aeruginosa KB359 NBRC12582 by agar dilution method; assay type: functional
Pseudomonas aeruginosa [2] = experiment: Antibacterial activity against Pseudomonas aeruginosa KB115 NBRC3080 by agar dilution method; assay type: functional
Comamonas terrigena = experiment: Antibacterial activity against Comamonas terrigena KB358 NBRC13299 by agar dilution method; assay type: functional
Serratia marcescens = experiment: Antibacterial activity against Serratia marcescens KB215 IAM1021 by agar dilution method; assay type: functional
Proteus mirabilis = experiment: Antibacterial activity against Proteus mirabilis KB125 NBRC3849 by agar dilution method; assay type: functional
Proteus vulgaris = experiment: Antibacterial activity against Proteus vulgaris KB127 IF03167 by agar dilution method; assay type: functional
Salmonella typhimurium = experiment: Antibacterial activity against Salmonella typhimurium KB20 by agar dilution method; assay type: functional, Salmonella enterica subsp. enterica serovar Typhimurium; conditions: Salmonella enterica
Klebsiella pneumoniae [3] = experiment: Antibacterial activity against Klebsiella pneumoniae KB357 NBRC357 by agar dilution method; assay type: functional
Klebsiella pneumoniae [4] = experiment: Antibacterial activity against Klebsiella pneumoniae KB214 ATCC 10031 by agar dilution method; assay type: functional
Escherichia coli [5] = experiment: Antibacterial activity against Escherichia coli KB336 JCM5491 by agar dilution method; assay type: functional
Escherichia coli [6] = experiment: Antibacterial activity against Escherichia coli KB176 NIHJ JC-2 by agar dilution method; assay type: functional
Escherichia coli [7] = experiment: Antibacterial activity against Escherichia coli KB213 NIHJ by agar dilution method; assay type: functional
[8] = test system: Mycolicibacterium smegmatis; experiment: Antibacterial activity against Mycobacterium smegmatis KB42 ATCC 607 by agar dilution method; assay type: functional
Micrococcus luteus = experiment: Antibacterial activity against Micrococcus luteus KB453 NBRC13867 by agar dilution method; assay type: functional
Kocuria rhizophila [9] = experiment: Antibacterial activity against Kocuria rhizophila KB354 NBRC12708 by agar dilution method; assay type: functional
Kocuria rhizophila [10] = experiment: Antibacterial activity against Kocuria rhizophila KB212 ATCC 9341 by agar dilution method; assay type: functional
Bacillus cereus = experiment: Antibacterial activity against Bacillus cereus KB143 NBRC3001 by agar dilution method; assay type: functional
Bacillus subtilis [11] = experiment: Antibacterial activity against Bacillus subtilis KB340 JCM1465 by agar dilution method; assay type: functional
Bacillus subtilis [12] = experiment: Antibacterial activity against Bacillus subtilis KB355 NBRC3134 by agar dilution method; assay type: functional
Bacillus subtilis [13] = experiment: Antibacterial activity against Bacillus subtilis KB211 ATCC 6633 by agar dilution method; assay type: functional
[14] = test system: Staphylococcus epidermidis; experiment: Antibacterial activity against Staphylococcus epidermidis KB352 NBRC12993 by agar dilution method; assay type: functional
Staphylococcus aureus [15] = experiment: Antibacterial activity against Staphylococcus aureus KB349 MRSA K24 by agar dilution method; assay type: functional
Staphylococcus aureus [16] = experiment: Antibacterial activity against Staphylococcus aureus KB335 JCM2151 by agar dilution method; assay type: functional
Staphylococcus aureus [17] = experiment: Antibacterial activity against Staphylococcus aureus KB210 ATCC 6538p by agar dilution method; assay type: functional

MIC (Mucor racemosus): 100 mg/L (≈ 357 µM) | MIC (Aspergillus niger): 50 mg/L (≈ 178 µM) | MIC (Aspergillus oryzae): 50 mg/L (≈ 178 µM) | MIC (Saccharomyces cerevisiae): 12.5 mg/L (≈ 44.6 µM) | MIC (Candida albicans): 25 mg/L (≈ 89.2 µM) | MIC (Pseudomonas aeruginosa [1]): 100 mg/L (≈ 357 µM) | MIC (Pseudomonas aeruginosa [2]): 100 mg/L (≈ 357 µM) | MIC (Comamonas terrigena): 50 mg/L (≈ 178 µM) | MIC (Serratia marcescens): > 100 mg/L | MIC (Proteus mirabilis): 100 mg/L (≈ 357 µM) | MIC (Proteus vulgaris): 50 mg/L (≈ 178 µM) | MIC (Salmonella typhimurium): > 100 mg/L | MIC (Klebsiella pneumoniae [3]): > 100 mg/L | MIC (Klebsiella pneumoniae [4]): > 100 mg/L | MIC (Escherichia coli [5]): > 100 mg/L | MIC (Escherichia coli [6]): > 100 mg/L | MIC (Escherichia coli [7]): 100 mg/L (≈ 357 µM) | MIC [8]: 50 mg/L (≈ 178 µM) | MIC (Micrococcus luteus): 50 mg/L (≈ 178 µM) | MIC (Kocuria rhizophila [9]): 50 mg/L (≈ 178 µM) | MIC (Kocuria rhizophila [10]): 50 mg/L (≈ 178 µM) | MIC (Bacillus cereus): 50 mg/L (≈ 178 µM) | MIC (Bacillus subtilis [11]): 50 mg/L (≈ 178 µM) | MIC (Bacillus subtilis [12]): 50 mg/L (≈ 178 µM) | MIC (Bacillus subtilis [13]): 100 mg/L (≈ 357 µM) | MIC [14]: 50 mg/L (≈ 178 µM) | MIC (Staphylococcus aureus [15]): 50 mg/L (≈ 178 µM) | MIC (Staphylococcus aureus [16]): 50 mg/L (≈ 178 µM) | MIC (Staphylococcus aureus [17]): 50 mg/L (≈ 178 µM)
SMILES: CCCCCC1OC(=O)Cc2cc(OC)c(O)c(O)c21 (racemic)
